# Source: paper PMC8457056, “Remodeling of the Fibrillation Pathway of α‐Synuclein by Interaction with Antimicrobial Peptide LL‐III” (Chemistry (Weinheim an Der Bergstrasse, Germany), 2021)
# Test system: α‐Syn
# Test: atomic force microscopy of α-Syn fibrils
# Format: biochemical, human
# Settings: 20 μM α-Syn, dried on mica, 20 mM sodium acetate, pH 5.0, room temperature
# Protocol: To verify inhibition of α‐Syn fibril formation upon addition of LL‐III, atomic force microscopy (AFM) experiments were carried out. To this end, a 20 μM solution of α‐Syn in the absence and in the presence of LL‐III was dried on a mica surface and AFM pictures were recorded. Under such conditions, liquid droplets could not be detected. In the absence of LL‐III, short fibril‐like structures were observed (Figure S3).
# The lyophilized powders of the labeled and unlabeled LL-III peptide were purchased from GenScript, Germany.
# The sequence of the LL-III peptide is NH2-VNWKKIL GKIIKVVK -CONH2. In th e labeled peptide, the fluorophore 6-carboxyfluorescein (FAM) was covalently attached to the N-terminus of the peptide. […]
# The expression and purification of α-synuclein (α-Syn) was carried out as described before.[1,2] […] A single colony was picked and inoculated into 100 m l LB medium containing 150 μg/m l ampicillin and grown at 37°C with shaking at 250 rpm until the absorbance at 600 nm reached 0.8. […]
# Phase-contrast light and fluorescence microscopy
# The light and fluorescence microscopy experiments were performed using an Eclipse TE2000- U (Nikon Inc.) op-tical microscope with a Nikon Plan Fluor 20x objective (NA 0.45 WD 7.4) coupled to an TIS DMK 23UX249 camera. […] Fluorescence microscopy experiments were performed using 6-carboxyfluorescein- l abel ed LL- III (FAM-LL-III) exciting at 488 nm. […]
substance,measurement,setting,value
NH2-VNWKKIL GKIIKVVK -CONH2 [LL‐III],fibrils by AFM,200 μM LL-III,some fibrils of smaller size were still visible after drying
same,fibrils by AFM,500 μM LL-III,fibrillar structures could no longer be detected
